Values of other authors in patent US12357678B2, “Cancer stem cell targeted cancer vaccines” (priority 2012, dated 2025).

Experiments:
HLA-A2 = details: mutant vs wild type IL-13Rα2345-353
T cells = details: mutant vs wild type IL-13Rα2345-353
[1] = system: IL-13Ra2 positive, HLA-A2 positive glioma cells

Substance: ALPFGFILV (Amino acid residues 345-353 of IL-13 Receptor alpha mutation of W to A at position 345 and I to V at position 353) [IL-13Rα2345-353:1A9V, IL-13Rα2 345-353 with mutation of W to A at position 345 and I to V at position 353]
- affinity for HLA-A2 relative to wild type peptide (HLA-A2): increased the affinity for HLA-A2
- T cell response (immunogenicity) relative to wild type peptide (T cells): more robust T cell response
- killing of glioma cells by T cells stimulated with the peptide, relative to wild type ([1]; T cells stimulated with mutant vs wild type peptide): more effective at killing glioma cells

Substance: ELMLG EFLKL (ELMLGEFLKL; Amino acid residues 95-104 of Survivin with a methionine substitution at position 3) [SEQ ID NO:9, Survivin 95-104 with a methionine substitution at position 3]
- activation of T cells cytotoxic to cancer cells (cancer cells): able to activate T cells that were cytotoxic to cancer cells
- immunogenicity of survivin analog peptide (cancer cells): immunogenic

Substance: WLPFGFILI (Amino acid residues 345-353 of IL-13 Receptor alpha; listed as Homo sapiens) [IL-13Rα2345-353, Amino acid residues 345-353 of Interleukin-13 Receptor alpha]
- lysis of glioma cells by CTL lines generated by stimulation of CD8+ cells with the peptide ([1]; IL-13Ra2 positive, HLA-A2 positive glioma cells, antigen-specific): efficiently lysed
